{"source": "ChEMBL document CHEMBL1158010", "about": "“New cytotoxic oxygenated fucosterols from the brown alga Turbinaria conoides” (1999)", "key": {"KB": {"tested_on": "KB", "experiment": "Cytotoxicity against human KB cells after 3 days by MTT assay", "conditions": "72 h, read-out: ED50 (the source's name)"}, "A549": {"tested_on": "A549", "experiment": "Cytotoxicity against human A549 cells after 6 days by MTT assay", "conditions": "A549, 144 h, read-out: ED50 (the source's name)"}, "P388": {"tested_on": "P388", "experiment": "Cytotoxicity against mouse P388 cells after 3 days", "conditions": "P388, 72 h, read-out: ED50 (the source's name)"}, "HT-29": {"tested_on": "HT-29", "experiment": "Cytotoxicity against human HT-29 cells after 6 days by MTT assay", "conditions": "HT-29, 144 h, read-out: ED50 (the source's name)"}}, "data": [{"molecule": "C/C=C(\\CC[C@@H](C)[C@H]1CC[C@H]2[C@@H]3CC(=O)C4=CC(=O)CC[C@]4(C)[C@H]3CC[C@]12C)C(C)C", "values": [{"measurement": "EC50", "setting": "KB", "value": 5.9, "unit": "µg/mL"}, {"measurement": "EC50", "setting": "A549", "value": 3.1, "unit": "µg/mL"}, {"measurement": "EC50", "setting": "P388", "value": 0.6, "unit": "µg/mL"}, {"measurement": "EC50", "setting": "HT-29", "value": 0.4, "unit": "µg/mL"}]}, {"molecule": "C=CC(CC[C@@H](C)[C@H]1CC[C@H]2[C@@H]3C[C@@H](O)C4=CC(=O)CC[C@]4(C)[C@H]3CC[C@]12C)(OO)C(C)C", "note": "(stereo not given in full)", "values": [{"measurement": "EC50", "setting": "KB", "value": 1.8, "unit": "µg/mL"}, {"measurement": "EC50", "setting": "A549", "value": 1.8, "unit": "µg/mL"}, {"measurement": "EC50", "setting": "P388", "value": 0.4, "unit": "µg/mL"}, {"measurement": "EC50", "setting": "HT-29", "value": 1.7, "unit": "µg/mL"}]}, {"molecule": "C/C=C(\\CC[C@@H](C)[C@H]1CC[C@H]2[C@@H]3C[C@@H](O)C4=CC(=O)CC[C@]4(C)[C@H]3CC[C@]12C)C(C)C", "values": [{"measurement": "EC50", "setting": "KB", "value": 4.6, "unit": "µg/mL"}, {"measurement": "EC50", "setting": "A549", "value": 2.3, "unit": "µg/mL"}, {"measurement": "EC50", "setting": "P388", "value": 0.9, "unit": "µg/mL"}, {"measurement": "EC50", "setting": "HT-29", "value": 1.2, "unit": "µg/mL"}]}, {"molecule": "C/C=C(\\CC[C@@H](C)[C@H]1CC[C@H]2[C@@H]3CCC4=CC(=O)CC[C@]4(C)[C@H]3CC[C@]12C)C(C)C", "values": [{"measurement": "EC50", "setting": "KB", "value": "> 50", "unit": "µg/mL"}, {"measurement": "EC50", "setting": "A549", "value": "> 50", "unit": "µg/mL"}, {"measurement": "EC50", "setting": "P388", "value": "> 50", "unit": "µg/mL"}, {"measurement": "EC50", "setting": "HT-29", "value": "> 50", "unit": "µg/mL"}]}, {"molecule": "C=CC(CC[C@@H](C)[C@H]1CC[C@H]2[C@@H]3CC(=O)C4=CC(=O)CC[C@]4(C)[C@H]3CC[C@]12C)(OO)C(C)C", "note": "(stereo not given in full)", "values": [{"measurement": "EC50", "setting": "KB", "value": 4, "unit": "µg/mL"}, {"measurement": "EC50", "setting": "A549", "value": 2.5, "unit": "µg/mL"}, {"measurement": "EC50", "setting": "P388", "value": 0.8, "unit": "µg/mL"}, {"measurement": "EC50", "setting": "HT-29", "value": 1.4, "unit": "µg/mL"}]}]}
